Drawing on patent EP2474542A1 (priority 2010, dated 2012), this text covers chromatographic logP and Eff.% for two molecules.

Like-named read-outs stand apart in the source and are kept apart here.

Series [1] can be described thus: logP determination (HPLC/MS characterisation, HCOOH). The format is physicochemical.
The next series has as its system Phytophthora infestans. In kind it is in vivo. Particulars: preventive, young tomato plants sprayed, 100ppm of active ingredient, evaluated 7 days after the inoculation; 0% = untreated control, 100% = no disease.
[2] abbreviates: HCOOH, HPLC/MS, read-out: logP(HCOOH).

As for `Cn1nnnc1/C(=N\OCc1csc(NC(=O)O/N=C/c2ccccc2)n1)c1ccccc1` [Example 1, ({4-[({[(Z)-(1-methyl-1H-tetrazol-5-yl)(phenyl)methylene]amino}oxy)methyl]-1,3-thiazol-2-yl}amino)({[(E)-phenylmethylene]amino}oxy)methanone], the chromatographic logP in series [1] (setting [2]) stood at 3.39; in series [1] (Table 1, read-out: log P), 3.13. The molecule further had an Eff.% in the series with Phytophthora infestans of 95%.

Turning to `Cn1nnnc1/C(=N\OCc1csc(N=C=O)n1)c1ccccc1` [(Z)-N-[(2-isocyanato-1,3-thiazol-4-yl)methoxy]-1-(1-methyl-1H-tetrazol-5-yl)-1-phenylmethanimine], the chromatographic logP in series [1] (setting [2]) was determined as 3.13.
